Assay results taken from patent US12228565B2, “Blood cell lysis compositions and uses thereof” (Instrumentation Laboratory Company, priority 2021, dated 2025).

Experiments:
whole blood cells = conditions: after 1 to 2 seconds; composition of Table 2, surfactant 9-14%
Text: The blood sample analyzed by CO-Oximeter system 5 may be a whole blood sample that is lysed using one or more of the blood cell lysing compositions described herein. More specifically, in example CO-Oximeter 5, a blood cell lysis composition and a blood sample are introduced into a mixing chamber—e.g., through a mixing valve—in an optical cell 7. Movement of the blood sample and blood cell lysis composition through the mixing chamber under simultaneous actuation implemented by a solenoid causes the blood sample and lysis composition to simultaneously mix and lyse the red blood cells. The resulting mixture constitutes a lysed blood sample that is usable to obtain optical absorbance measurements by the CO-Oximeter with a reduction or elimination of scattering effects caused by red blood cells.
In an example testing procedure, secondary alcohol ethoxylate1 and secondary alcohol ethoxylate2 were included in the example blood cell lysis composition described with respect to Table 2 below at concentrations of 9% to 14% and tested in a CO-Oximetry system of the type described herein.

[1] = Foam height of surfactant in water based solution (Ross-Miles method); type: physicochemical
Text: (§1) Surfactants used for lysing, including the secondary alcohol ethoxylates described herein, may lower surface tension in a liquid blood sample and induce foam formation in the blood sample as air is mixed into the blood sample. Foam is detrimental to optical absorbance measurements because it causes additional light scattering. In some implementations, surfactants for performing cell lysis in CO-Oximetry may reduce or minimize foam formation and/or produce foam that dissipates quickly prior to spectral measurements. […] (Celsius). […] Standard measurements of the foam height may be taken, for example, five minutes after addition of the surfactant to a water based solution. The foam height produced by a secondary alcohol ethoxylate may be measured, for example, using the Ross-Miles method.
(§2) Triton-X100 is a control (or reference) surfactant against which the secondary alcohol ethoxylate surfactants are compared. […] In Table 1 below, […], which is a property of the surfactant that indicates/relates to the effectiveness of the material as a surfactant.

[2] = Surface tension of surfactant; type: physicochemical
Text: as §1, §2

Row | Substance | lysis of whole blood cells (whole blood cells) | Foam Height—5 minutes (0.1 weight % actives) [1] [mm] | Foam height—Initial (0.1 weight % actives) [1] [mm] | Surface Tension (1% actives, 25° C.) [2]
1 | Tergitol™ Type 15-S-9 [secondary alcohol ethoxylate2] | about 100% | 43 | 124 | 30 dynes/cm
2 | Triton X-100 [reference compound] |  | 107 | 128 | 33 dynes/ dynes/cm
